Experimental data taken from PubChem BioAssay (NCI).
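96-well plates; 48 h exposure; 5 concentrations. Endpoints by linear interpolation between flanking doses. Not reached: highest tested concentration assigned. GI50 = concentration required for 50% inhibition of growth. TGI marks complete inhibition of growth.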

Tests used:
Experiment in all cases: inhibition of tumour cell growth, NCI panel, 48 h
[1] = system: 786-0 renal
[2] = system: A498 renal
[3] = system: A549 NSCLC
[4] = system: ACHN renal
[5] = system: BT-549 breast
[6] = system: CAKI-1 renal
[7] = system: CCRF-CEM leukemia
[8] = system: COLO 205 colon
[9] = system: DU-145 prostate
[10] = system: EKVX NSCLC
[11] = system: HCC-2998 colon
[12] = system: HCT-116 colon
[13] = system: HCT-15 colon
[14] = system: HL-60(TB) leukemia
[15] = system: HOP-62 NSCLC
[16] = system: HOP-92 NSCLC
[17] = system: HS 578T breast
[18] = system: HT29 colon
[19] = system: IGROV1 ovarian
[20] = system: K-562 leukemia
[21] = system: KM12 colon
[22] = system: LOX IMVI melanoma
[23] = system: M14 melanoma
[24] = system: MALME-3M melanoma
[25] = system: MCF7 breast
[26] = system: MDA-MB-231 breast
[27] = system: MDA-MB-435
[28] = system: MOLT-4 leukemia
[29] = system: NCI-H226 lung
[30] = system: NCI-H23 lung
[31] = system: NCI-H460 lung
[32] = system: NCI-H522 lung
[33] = system: NCI/ADR-RES ovarian
[34] = system: OVCAR-3 ovarian
[35] = system: OVCAR-4 ovarian
[36] = system: OVCAR-5 ovarian
[37] = system: OVCAR-8 ovarian
[38] = system: PC-3 prostate
[39] = system: RPMI-8226 leukemia
[40] = system: RXF 393 renal
[41] = system: SF-268 CNS
[42] = system: SF-295 CNS
[43] = system: SF-539 CNS
[44] = system: SK-MEL-2 melanoma
[45] = system: SK-MEL-28 melanoma
[46] = system: SK-MEL-5 melanoma
[47] = system: SK-OV-3 ovarian
[48] = system: SN12C renal
[49] = system: SNB-19 CNS
[50] = system: SNB-75 CNS
[51] = system: SR leukemia
[52] = system: SW-620 colon
[53] = system: T-47D breast
[54] = system: TK-10 renal
[55] = system: U251 CNS
[56] = system: UACC-257 melanoma
[57] = system: UACC-62 melanoma
[58] = system: UO-31 renal

CCN1C(=O)N(CC)C2C1NN=c1s/c(=C\c3ccc[nH]3)c(=O)n12 (centres undefined)
GI50 [1]: 0.614 µM
TGI [1]: > 100 µM
GI50 [2]: 0.102 µM
TGI [2]: 0.622 µM
GI50 [3]: 0.523 µM
TGI [3]: > 100 µM
GI50 [4]: 0.538 µM
TGI [4]: > 100 µM
GI50 [5]: 0.834 µM
TGI [5]: > 100 µM
GI50 [6]: 0.301 µM
TGI [6]: > 100 µM
GI50 [7]: 0.402 µM
TGI [7]: > 100 µM
GI50 [8]: 0.349 µM
TGI [8]: 1.82 µM
GI50 [9]: 0.496 µM
TGI [9]: > 100 µM
GI50 [10]: 0.852 µM
TGI [10]: > 100 µM
GI50 [11]: 1.82 µM
TGI [11]: > 100 µM
GI50 [12]: 0.453 µM
TGI [12]: > 100 µM
GI50 [13]: 0.337 µM
TGI [13]: > 100 µM
GI50 [14]: 0.285 µM
TGI [14]: 1.4 µM
GI50 [15]: 0.603 µM
TGI [15]: > 100 µM
GI50 [16]: 13.4 µM
TGI [16]: > 100 µM
GI50 [17]: 0.335 µM
TGI [17]: > 100 µM
GI50 [18]: 0.342 µM
GI50 [19]: 0.838 µM
TGI [19]: > 100 µM
GI50 [20]: 0.245 µM
TGI [20]: > 100 µM
GI50 [21]: 0.286 µM
TGI [21]: > 45 µM
GI50 [22]: 0.578 µM
TGI [22]: > 100 µM
GI50 [23]: 0.385 µM
TGI [23]: > 100 µM
GI50 [24]: 0.546 µM
TGI [24]: > 100 µM
GI50 [25]: 0.273 µM
TGI [25]: > 100 µM
GI50 [26]: 3.01 µM
TGI [26]: > 100 µM
GI50 [27]: 0.0832 µM
TGI [27]: 0.421 µM
GI50 [28]: 0.543 µM
TGI [28]: > 100 µM
TGI [29]: > 100 µM
GI50 [30]: 1.34 µM
TGI [30]: > 100 µM
GI50 [31]: 0.36 µM
TGI [31]: > 41.8 µM
GI50 [32]: 0.244 µM
TGI [32]: 8.34 µM
GI50 [33]: 0.413 µM
TGI [33]: > 100 µM
GI50 [34]: 0.279 µM
TGI [34]: 0.948 µM
GI50 [35]: 1.68 µM
TGI [35]: > 100 µM
GI50 [36]: 1.59 µM
TGI [36]: > 100 µM
GI50 [37]: 0.85 µM
TGI [37]: > 100 µM
GI50 [38]: 0.372 µM
TGI [38]: > 100 µM
GI50 [39]: 0.481 µM
TGI [39]: > 100 µM
GI50 [40]: 0.286 µM
TGI [40]: 2.19 µM
GI50 [41]: 0.7 µM
TGI [41]: > 100 µM
GI50 [42]: 0.334 µM
TGI [42]: > 40.3 µM
GI50 [43]: 0.246 µM
TGI [43]: 1.05 µM
GI50 [44]: 0.502 µM
TGI [44]: > 100 µM
TGI [45]: > 100 µM
GI50 [46]: 0.309 µM
TGI [46]: > 41.5 µM
GI50 [47]: 0.301 µM
TGI [47]: > 100 µM
GI50 [48]: 0.991 µM
TGI [48]: > 100 µM
GI50 [49]: 0.626 µM
TGI [49]: > 100 µM
GI50 [50]: 0.14 µM
TGI [50]: 0.598 µM
GI50 [51]: 0.148 µM
TGI [51]: > 38.2 µM
GI50 [52]: 0.326 µM
TGI [52]: > 100 µM
GI50 [53]: 0.4 µM
TGI [53]: > 100 µM
GI50 [54]: > 47.8 µM
TGI [54]: > 100 µM
GI50 [55]: 0.446 µM
TGI [55]: > 100 µM
GI50 [56]: > 100 µM
TGI [56]: > 100 µM
GI50 [57]: 0.435 µM
TGI [57]: > 100 µM
GI50 [58]: 0.719 µM
TGI [58]: > 100 µM

O=S(=O)(NC1=NCCN1C(=S)SN1CCn2c1nsc2=S)c1cccc(OC(F)(F)F)c1
GI50 [1]: 12 µM
TGI [1]: 27.1 µM
GI50 [2]: 22.6 µM
TGI [2]: 42 µM
GI50 [3]: 17.4 µM
TGI [3]: 44.8 µM
GI50 [4]: 13.5 µM
TGI [4]: 26.3 µM
GI50 [5]: 25.7 µM
TGI [5]: > 100 µM
GI50 [6]: 17.8 µM
TGI [6]: 43.5 µM
GI50 [7]: 2.16 µM
TGI [7]: 4.22 µM
GI50 [8]: 13.3 µM
TGI [8]: > 100 µM
GI50 [9]: 14.1 µM
TGI [9]: 29.6 µM
GI50 [10]: 44 µM
TGI [10]: > 100 µM
GI50 [11]: 5.16 µM
TGI [11]: 16.1 µM
GI50 [12]: 10.2 µM
TGI [12]: 21.9 µM
GI50 [13]: 10.5 µM
TGI [13]: 22.4 µM
GI50 [14]: > 100 µM
TGI [14]: > 100 µM
GI50 [15]: 8 µM
TGI [15]: 20.3 µM
GI50 [16]: 4.45 µM
TGI [16]: 20.4 µM
GI50 [17]: 35.9 µM
TGI [17]: > 100 µM
GI50 [18]: 6.91 µM
TGI [18]: 26.4 µM
GI50 [19]: 9.86 µM
TGI [19]: 46.6 µM
GI50 [20]: 4.47 µM
TGI [20]: > 100 µM
GI50 [21]: 10.3 µM
TGI [21]: 24.5 µM
GI50 [22]: 3.71 µM
TGI [22]: 12.4 µM
GI50 [23]: 13 µM
TGI [23]: 28.1 µM
GI50 [24]: 6.75 µM
TGI [24]: 23.3 µM
GI50 [25]: 4.17 µM
TGI [25]: 17.2 µM
GI50 [26]: 14.1 µM
TGI [26]: 35.4 µM
GI50 [27]: 5.86 µM
TGI [27]: 22.1 µM
GI50 [28]: 2.71 µM
TGI [28]: 10.8 µM
GI50 [29]: 16.2 µM
TGI [29]: 31.7 µM
GI50 [30]: 12.8 µM
TGI [30]: 32.1 µM
GI50 [31]: 13.4 µM
TGI [31]: 41.4 µM
GI50 [32]: 6.85 µM
TGI [32]: 28.3 µM
GI50 [33]: 12 µM
TGI [33]: 44.8 µM
GI50 [34]: 5.07 µM
TGI [34]: 16.4 µM
GI50 [35]: 12.5 µM
TGI [35]: 27.9 µM
GI50 [36]: 16.4 µM
TGI [36]: 30 µM
GI50 [37]: 11 µM
TGI [37]: 65.1 µM
GI50 [38]: 9.94 µM
TGI [38]: 26.4 µM
GI50 [39]: 2.06 µM
TGI [39]: 4.44 µM
GI50 [40]: 2.42 µM
TGI [40]: 6 µM
GI50 [41]: 11.2 µM
TGI [41]: 34.4 µM
GI50 [42]: 23.6 µM
TGI [42]: 63.3 µM
GI50 [43]: 19.8 µM
TGI [43]: 37.7 µM
GI50 [44]: 16 µM
TGI [44]: 41.5 µM
GI50 [45]: 15.9 µM
TGI [45]: 32.6 µM
GI50 [46]: 16.6 µM
TGI [46]: 32.8 µM
GI50 [47]: 23.5 µM
TGI [47]: 46.5 µM
GI50 [48]: 11.3 µM
TGI [48]: 26.7 µM
GI50 [49]: 18 µM
TGI [49]: 45.4 µM
GI50 [50]: 16.2 µM
TGI [50]: 38.9 µM
GI50 [51]: 2.77 µM
TGI [51]: > 100 µM
GI50 [52]: 6.7 µM
TGI [52]: > 100 µM
GI50 [53]: 12.3 µM
TGI [53]: 39.4 µM
GI50 [54]: 13.8 µM
TGI [54]: 29.7 µM
GI50 [55]: 17.2 µM
TGI [55]: 30.9 µM
GI50 [56]: 17.3 µM
TGI [56]: 38.1 µM
GI50 [57]: 9.68 µM
TGI [57]: 21.6 µM
GI50 [58]: 14.1 µM
TGI [58]: 28.1 µM
